Data taken from patent US11065275B2, “Cross-linking agents and associated methods” (University of Utah Research Foundation, priority 2016, dated 2021).
Read-outs that look alike come from different tables or passages of the source.

What was measured:
[1] = tested on: human cadaver corneas and rabbit corneas
Description: Cornea radial strain measurements were performed on human cadaver corneas and on rabbit corneas. Human cadaver corneas (n=2 pairs) were cultured as previously mentioned in Example 1. The treated group was immersed in 0.0016 mg/ml CuSO4 for 2 weeks. The samples also contained a small portion of sclera at both ends. Mineral oil was applied on the surface of the sclera-cornea-sclera strip to minimize tissue dehydration. Rabbit corneas were divided into 4 groups. Two groups were treatment groups receiving either CuSO4 0.0025 mg/ml three times per day or CuSO4 0.0025 mg/ml once per day. Two groups served as control receiving only BSS.
The sample was coupled between a motor and a transducer that applied a controlled pressure from 5-30 mmHg and measured the resultant radial strain. The sample length between the two gripping jaws was approximately 10 mm. Sample geometric information, including width and thickness, was input into the Rheometrics System Analyzer (RSA) control panel. Sample thickness was measured by an ultrasound pachymeter (DGH 550 Pa-chette2; DGH Technology, Exton, Pa.).

lysyl oxidase (LOX) = settings: 0.0016 mg/mL CuSO4 in BSS vs BSS control
Description: As a parallel assay, we added 500 uM aminopropionitrile (BAPN) which can diminish LOX activity completely. The fluorescence of oxidized Amplex red was recorded every 10 minutes using fluorescence plate reader.

Human Keratoconus Cornea = settings: corneas treated 1 week with 0.0016 mg/ml CuSO4 vs untreated, HPLC
Description: Each Human Keratoconus Cornea was bisected. One half was treated with 0.0016 mg/ml CuSo4 in Optisol solution for 1 week and other half was left untreated. After one week each cornea was kept in negative 80° C. for future analysis.
The cornea samples were washed with PBS pH 7.4 and powdered in liquid nitrogen and pulverized with a Freezer Mill. Cornea samples were demineralized with 0.5 M EDTA in 0.05 M Tris buffer, pH 7.4, for 48 h at 4° C. The insoluble fraction was washed twice with distilled water by centrifugation at 5000 g at […] for 20 min and lyophilized. The lyophilized sample was hydrolyzed with constantly boiling redistilled 6 N HCl in vacuo for 24 h at 110° C. The hydrolysate was neutralized with 2.5 N NaOH and dissolved in distilled water. Analyses were performed for Lysinonorleucine (LNL) and Histidinohydroxylysinonorleucine (HHL) separately by HPLC.
Amino acid analysis is an important application area in protein chemistry and food analysis. Many different applications exist in this field. Automated pre-column derivatization followed by reverse phase LC has become a useful procedure for efficient analysis, since it is an easy and simple to use technique. An Agilent 1290 Infinity LC System was used with automated pre-column derivatization for fast and sensitive analysis of Lysinonorleucine (LNL). The column used for this method is Agilent ZORBAX Eclipse Plus RRHD C18 (3.0 mm×50 mm, 1.8 μm) and Mobile phase consisted of Solvent A: 10 mM disodium phosphate+10 mM sodium tetraborate pH 8.2 and Solvent B: ACN/MeOH/H2O (45:45:10)
To […] of the protein hydrolysate sample (less than 3 mM as the total amino acid concentration), 50 μl of 1.5 mM Ne-methyl-L-lysine hydrochlo ide (Mly) in 0.26 M borate buffer, pH 9.5, and 50 μl of acetone were added in a 1.5-ml reaction vial. Then 25 μl of FMOC-Cl reagent (6 mM FMOC-Cl in acetone) was added and the mixture was allowed to react for 2 min at room temperature. The reaction mixture was extracted twice with […] of pentane to remove excess FMOC-Cl reagent. The aqueous phase was subjected to chromatography.
Cornea cross-linking is tissue specific. The predominant cross-links generated in the human cornea are lysinonorleucine (LNL). LNL are the building blocks for subsequent multivalent cross-links such as the histidinyl-hydroxylysinonorleucine (HHL). Normal and keratoconic human corneas were treated for 1 week with 0.0016 mg/ml CuSO4. Then, an HPLC analysis was performed to measure levels of LNL (FIGS. 2A-2C) and HHL (FIGS. 3A-3C).

rabbits = settings: 0.0025 mg/ml TID or QD
Description: Copper sulfate (CuSO4) solution was prepared at a concentration of 0.0025 mg/ml and administered three times a day (TID) or once a day (QD) to rabbits. An anterior segment evaluation was performed with slit-lamp biomicroscopy and Heidelberg Spectralis anterior segment optical coherence tomography (AS-OCT). Two rabbits (n=4 eyes) were sacrificed at each of day 1, week 1, week 4, and week 6 for copper levels in eye tissues and compared to control (no drops) rabbits. Aqueous humor, vitreous, retina, cornea, lens, and blood samples were analyzed for copper ions using inductively coupled plasma mass spectrometry (ICP-MS).
Rabbits (n=2) were sacrificed after 42 days by intravenous injection of 0.3 ml/kg euthanasia solution and the eyes were enucleated for histological evaluations and reading for signs of inflammation, tissue damage, scarring and fibrosis. The anterior section of the eyes were fixed in 10% formaldehyde-glutaraldehyde solution, dehydrated in a graded series of alcohol, embedded in paraffin, and sectioned with a microtome. The sections were stained with appropriate staining (hematoxylin and eosin and Masson Trichrome).

[2] = tested on: cornea of New Zealand white rabbits; settings: 0.0025 mg/ml once or three times per day, 0.025 mg/ml once per day; weekly for 5 weeks; mean K and at 3 mm
Description: Copper sulfate (CuSO4) at 0.0025 mg/ml was administered to New Zealand white rabbits at a dose of once per day and three times per day. Additionally, a high concentration sample of 0.025 mg/ml was administered to New Zealand with rabbits once per day during the treatment period. Three different controls were administered either no drops, BSS, or artificial tears. Each of the 6 groups included 6 test subjects each. Topography images were taken before treatment and weekly for 5 weeks. Diopter measurements were the mean K values and at 3 mm. These values were compared to diopter measurements in laser cross-linked corneas after 1 month and 1 year.

## O=S(=O)([O-])[O-].[Cu+2] [CuSO4, copper (II) sulfate]
[1]; after copper sulfate treatment vs untreated (FIG. 4)
  corneal stiffness: marked increase
[1]; at 20 mmHg
  average peak radial strain induced by ocular pulse, treated vs untreated corneas: about 1.5 times lower
[1]; compared with laser cross-linking (FIG. 5)
  corneal biomechanics: comparable to that seen with laser cross-linking
[1]; from radial strain at 20 mmHg, treated vs untreated
  increase in corneal strength: ~50%
Lysyl oxidase (LOX); keratoconus corneal fibroblast cells
  lox enzyme activity: dramatically increased
Lysyl oxidase (LOX); normal corneal fibroblast cells
  lox enzyme activity: dramatically increased
Human Keratoconus Cornea
  HHL (histidinyl-hydroxylysinonorleucine) cross-link levels: HHL cross-links are also observed
  LNL (lysinonorleucine) cross-link levels: LNL cross-links were observed
Human Keratoconus Cornea; listed as copper
  HHL (histidinyl-hydroxylysinonorleucine) cross-link levels: significant increase
  LNL (lysinonorleucine) cross-link levels: significant increase
rabbits
  corneal haze: no observed corneal haze
  effect on electroretinography (ERG) measurements: no effect
rabbits; histology after 6 weeks
  toxicity in dissected eye tissues: no observed toxicity
[2]
  decrease in diopter measurements vs control groups: greater decrease
